Reference: ChEMBL document CHEMBL1201862, “PubChem BioAssay data set” (2004)
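Each compound was tested at five concentrations against cells in 96-well plates for 48 hours. GI50 marks 50% less growth.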 The source made the active and inactive calls. Rule as the data show it: active = GI50 up to about 1.1 µM and inactive = higher.

What was measured:
Assay in all cases: growth of human tumour cells (NCI), 48 h
786-0 = test system: 786-0
A549 = test system: A549
COLO 205 = test system: COLO 205
DU-145 = test system: DU-145
HL-60 = test system: HL-60
Hs-578T = test system: Hs-578T
MCF7 = test system: MCF7
MDA-MB-231 = test system: MDA-MB-231
MDA-MB-435 = test system: MDA-MB-435
OVCAR-3 = test system: OVCAR-3
OVCAR-4 = test system: OVCAR-4
OVCAR-5 = test system: OVCAR-5
OVCAR-8 = test system: OVCAR-8
PC-3 = test system: PC-3
SK-OV-3 = test system: SK-OV-3
SR = test system: SR
UACC-257 = test system: UACC-257
UACC-62 = test system: UACC-62
HCC 2998 = test system: HCC 2998

Measured: GI50

COc1cc(O)c2c(O)c3c(c4c2c1[C@]1(C4)C(C)=CCCC1(C)C)[C@H](O)[C@@]1(O)CC(O)=C(C(N)=O)C(=O)[C@@]1(O)C3=O
active: 786-0 0.247 µM | A549 0.0499 µM | COLO 205 0.108 µM | DU-145 0.359 µM | HL-60 0.164 µM | Hs-578T 0.147 µM | MCF7 0.164 µM | MDA-MB-231 0.259 µM | MDA-MB-435 0.0667 µM | OVCAR-3 0.228 µM | OVCAR-4 0.245 µM | OVCAR-5 0.324 µM | OVCAR-8 0.113 µM | PC-3 0.119 µM | SK-OV-3 0.348 µM | SR 0.269 µM | UACC-257 0.231 µM | UACC-62 0.573 µM

CC(C)[Si](CC1=CCCCC12C(=O)N(COCC[Si](C)(C)C)c1ccccc12)(C(C)C)C(C)C (stereo not drawn)
inactive: 786-0 > 100 µM | A549 > 100 µM | COLO 205 > 100 µM | DU-145 66.7 µM | HCC 2998 65.6 µM | Hs-578T > 100 µM | MCF7 61 µM | MDA-MB-231 > 100 µM | MDA-MB-435 > 100 µM | OVCAR-3 39.4 µM | OVCAR-4 > 100 µM | OVCAR-5 27.2 µM | OVCAR-8 89.3 µM | PC-3 > 100 µM | SK-OV-3 > 100 µM | SR > 100 µM | UACC-257 37.6 µM | UACC-62 > 100 µM

COc1cc(CN(C)N2C(=O)c3cccc4cc([N+](=O)[O-])cc(c34)C2=O)cc(OC)c1OC
inactive: COLO 205 > 100 µM | DU-145 > 100 µM | HL-60 > 100 µM | Hs-578T 44.1 µM | MCF7 > 100 µM | MDA-MB-231 81.3 µM | MDA-MB-435 > 100 µM | OVCAR-3 > 100 µM | OVCAR-4 > 100 µM | OVCAR-5 > 100 µM | OVCAR-8 > 100 µM | PC-3 > 100 µM | SK-OV-3 44.1 µM | SR > 100 µM | UACC-62 > 100 µM

COc1ccc(N2C(=O)C3ON(Cc4ccc(CC(N)=O)cc4)C(c4c5ccccc5c(C)c5ccccc45)C3C2=O)cc1 (stereo not drawn)
inactive: 786-0 30 µM | A549 29.8 µM | DU-145 20.9 µM | HL-60 14.9 µM | Hs-578T 54.8 µM | MCF7 17.7 µM | MDA-MB-231 36.5 µM | MDA-MB-435 27.2 µM | OVCAR-3 25.4 µM | OVCAR-4 13.6 µM | OVCAR-5 27 µM | OVCAR-8 27 µM | PC-3 21.6 µM | SK-OV-3 > 100 µM | SR 12.6 µM | UACC-257 17.6 µM | UACC-62 30.7 µM

Nc1nc(N)c2ncn(-c3ccc(Br)cc3)c2n1
active: SR 0.119 µM
inactive: 786-0 28.1 µM | A549 33.1 µM | COLO 205 > 50.5 µM | DU-145 24.5 µM | HCC 2998 37.7 µM | Hs-578T 4.12 µM | MCF7 20.3 µM | MDA-MB-231 23.8 µM | MDA-MB-435 39.2 µM | OVCAR-3 16.2 µM | OVCAR-4 > 38.3 µM | OVCAR-5 20.9 µM | OVCAR-8 14.6 µM | PC-3 23 µM | SK-OV-3 15 µM | UACC-257 > 100 µM | UACC-62 17.1 µM

COC(=O)[C@@H]1CO[C@H](C(C)(C)C)N1C(=O)N1C=CC(=O)C[C@H]1C
inactive: 786-0 > 100 µM | A549 > 100 µM | COLO 205 > 100 µM | DU-145 > 100 µM | HL-60 > 100 µM | Hs-578T > 100 µM | MCF7 > 100 µM | MDA-MB-231 > 100 µM | MDA-MB-435 > 100 µM | OVCAR-3 > 100 µM | OVCAR-5 > 100 µM | OVCAR-8 > 100 µM | PC-3 > 100 µM | SK-OV-3 > 100 µM | SR > 100 µM | UACC-257 > 100 µM | UACC-62 > 100 µM

COc1cc2c(c(OC)c1OC)-c1ccc(SC)c(=O)cc1[C@@H](OC(=O)c1ccncc1)CC2
inactive: OVCAR-4 27 µM
active: 786-0 < 0.01 µM | A549 < 0.01 µM | COLO 205 < 0.01 µM | DU-145 < 0.01 µM | HCC 2998 < 0.01 µM | Hs-578T < 0.01 µM | MCF7 < 0.01 µM | MDA-MB-231 < 0.01 µM | MDA-MB-435 < 0.01 µM | OVCAR-3 < 0.01 µM | OVCAR-5 < 0.01 µM | OVCAR-8 < 0.01 µM | PC-3 < 0.01 µM | SK-OV-3 0.0165 µM | SR < 0.0145 µM | UACC-257 < 0.01 µM | UACC-62 < 0.01 µM

CCCNC1=C2C[C@@H](C)C[C@@H](OC)[C@@H](OC(=O)CCCN)[C@H](C)/C=C(\C)[C@@H](OC(N)=O)[C@H](OC)/C=C\C=C(/C)C(=O)NC(=CC1=O)C2=O
inactive: 786-0 20.8 µM | A549 15.7 µM | COLO 205 3.52 µM | DU-145 12.1 µM | HCC 2998 18.8 µM | HL-60 2.13 µM | Hs-578T 25.6 µM | MCF7 7.69 µM | MDA-MB-231 14.1 µM | MDA-MB-435 13 µM | OVCAR-3 8.61 µM | OVCAR-4 18.7 µM | OVCAR-5 15.2 µM | OVCAR-8 20.7 µM | PC-3 12.6 µM | SK-OV-3 16.4 µM | SR 7.98 µM | UACC-62 13.9 µM

CN(C)CCNC(=O)c1cccc2[nH]c(-c3ccncc3)nc12
active: HL-60 1.01 µM
inactive: 786-0 2.04 µM | A549 5.78 µM | COLO 205 1.6 µM | DU-145 7.76 µM | HCC 2998 1.95 µM | Hs-578T 4.59 µM | MCF7 3.44 µM | MDA-MB-231 3.24 µM | MDA-MB-435 1.84 µM | OVCAR-3 9.62 µM | OVCAR-4 9.29 µM | OVCAR-5 10.1 µM | OVCAR-8 6.68 µM | PC-3 3.83 µM | SR 3.38 µM | UACC-257 1.83 µM | UACC-62 2.96 µM

O=S(=O)(CC(O)C(Cl)(Cl)Cl)NNc1ccccc1 (stereo not drawn)
inactive: 786-0 > 100 µM | A549 > 100 µM | COLO 205 75 µM | DU-145 > 100 µM | HL-60 47.6 µM | Hs-578T > 100 µM | MCF7 > 100 µM | MDA-MB-231 > 100 µM | MDA-MB-435 > 100 µM | OVCAR-3 > 100 µM | OVCAR-4 > 100 µM | OVCAR-5 > 100 µM | OVCAR-8 > 100 µM | PC-3 > 100 µM | SK-OV-3 > 100 µM | SR > 100 µM | UACC-257 > 100 µM | UACC-62 20.7 µM

Oc1cc(N2CCCC2)ccc1/C=N/N1C(=S)N(c2ccccc2)C(=N\c2ccccc2)/C1=N/c1ccccc1
inactive: 786-0 > 100 µM | A549 > 100 µM | COLO 205 > 100 µM | DU-145 > 100 µM | HCC 2998 > 100 µM | Hs-578T 60.4 µM | MCF7 70.1 µM | MDA-MB-231 48 µM | MDA-MB-435 > 100 µM | OVCAR-3 > 100 µM | OVCAR-5 > 100 µM | OVCAR-8 > 100 µM | PC-3 > 100 µM | SK-OV-3 99.8 µM | SR > 100 µM | UACC-257 > 100 µM | UACC-62 97.7 µM

Cc1c([N+](=O)[O-])ccc2c(NCCCN(C)C)ccnc12
inactive: 786-0 26.8 µM | A549 19.8 µM | COLO 205 12.2 µM | DU-145 33 µM | HL-60 > 100 µM | Hs-578T 24 µM | MCF7 15.9 µM | MDA-MB-231 23 µM | MDA-MB-435 17.5 µM | OVCAR-3 21 µM | OVCAR-4 17.4 µM | OVCAR-5 29.6 µM | OVCAR-8 25.2 µM | PC-3 16.4 µM | SK-OV-3 39.8 µM | SR 29.2 µM | UACC-257 17.2 µM | UACC-62 20.7 µM

CN1CCc2c(sc3ncn(Nc4ccc(F)cc4)c(=N)c23)C1
inactive: 786-0 > 100 µM | A549 > 100 µM | DU-145 > 100 µM | HL-60 > 100 µM | Hs-578T > 100 µM | MCF7 > 100 µM | MDA-MB-231 > 100 µM | MDA-MB-435 > 100 µM | OVCAR-3 > 100 µM | OVCAR-4 > 100 µM | OVCAR-5 > 100 µM | OVCAR-8 > 100 µM | PC-3 > 100 µM | SK-OV-3 > 100 µM | SR > 100 µM | UACC-257 > 100 µM | UACC-62 > 100 µM

COC(=O)C1CCN(C(=O)OC(C)(C)C)CC1
inactive: 786-0 > 100 µM | A549 > 100 µM | COLO 205 > 100 µM | DU-145 > 100 µM | HCC 2998 > 100 µM | HL-60 > 100 µM | Hs-578T > 100 µM | MCF7 > 100 µM | MDA-MB-231 > 100 µM | MDA-MB-435 > 100 µM | OVCAR-3 > 100 µM | OVCAR-4 > 100 µM | OVCAR-5 > 100 µM | OVCAR-8 > 100 µM | PC-3 > 100 µM | SR > 100 µM | UACC-257 > 100 µM | UACC-62 > 100 µM

O=c1oc2c/c(=C\c3ccccc3)c(=O)c3cccc1c3-2
inactive: 786-0 22.8 µM | A549 > 100 µM | COLO 205 37.3 µM | DU-145 51.1 µM | HCC 2998 > 100 µM | HL-60 27.1 µM | Hs-578T 14.8 µM | MCF7 > 10 µM | MDA-MB-231 31.7 µM | MDA-MB-435 21.4 µM | OVCAR-3 23.6 µM | OVCAR-5 61.7 µM | OVCAR-8 19.8 µM | PC-3 56 µM | SK-OV-3 > 100 µM | SR 28.8 µM | UACC-257 31.7 µM | UACC-62 24.5 µM
